Test results reported in PubChem BioAssay AID1963853 (Molecular Pharmacology Branch, DTP, NCI, 2024).

Test system: 266295-075-R-J1-PDC spheroid viability
Experiment: Anticancer human tumor 266295-075-R-J1-PDC patient-derived head and neck squamous carcinoma cell line growth inhibition [POLQ]
Conditions: spheroids with HUVEC and MSC; for IC50: curve of first compound; for viability, T/C: stronger effect = lower value; active = viability on the fitted dose curve at most 10% of control; inactive = the rest
Outline: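 Three-cell-type spheroids modelling solid tumor plus stroma served as the readout system; POL inhibitors were tested individually and in combination, concentration ranges set by clinical Cmax where known.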

[1] = second compound 0.0316 µM, first compound 0.0316 µM
[2] = second compound 0.0316 µM, first compound 0.1 µM
[3] = second compound 0.0316 µM, first compound 0.316 µM
[4] = second compound 0.0316 µM, first compound 1 µM
[5] = second compound 0.0316 µM, first compound 3.16 µM
[6] = second compound 0.0316 µM, first compound 10 µM
[7] = second compound 0.1 µM, first compound 0.0316 µM
[8] = second compound 0.1 µM, first compound 0.1 µM
[9] = second compound 0.1 µM, first compound 0.316 µM
[10] = second compound 0.1 µM, first compound 1 µM
[11] = second compound 0.1 µM, first compound 3.16 µM
[12] = second compound 0.1 µM, first compound 10 µM
[13] = second compound 0.316 µM, first compound 0.0316 µM
[14] = second compound 0.316 µM, first compound 0.1 µM
[15] = second compound 0.316 µM, first compound 0.316 µM
[16] = second compound 0.316 µM, first compound 1 µM
[17] = second compound 0.316 µM, first compound 3.16 µM
[18] = second compound 0.316 µM, first compound 10 µM
[19] = second compound 1 µM, first compound 0.0316 µM
[20] = second compound 1 µM, first compound 0.1 µM
[21] = second compound 1 µM, first compound 0.316 µM
[22] = second compound 1 µM, first compound 1 µM
[23] = second compound 1 µM, first compound 3.16 µM
[24] = second compound 1 µM, first compound 10 µM
[25] = second compound 3.16 µM, first compound 0.0316 µM
[26] = second compound 3.16 µM, first compound 0.1 µM
[27] = second compound 3.16 µM, first compound 0.316 µM
[28] = second compound 3.16 µM, first compound 1 µM
[29] = second compound 3.16 µM, first compound 3.16 µM
[30] = second compound 3.16 µM, first compound 10 µM
[31] = second compound 10 µM, first compound 0.0316 µM
[32] = second compound 10 µM, first compound 0.1 µM
[33] = second compound 10 µM, first compound 0.316 µM
[34] = second compound 10 µM, first compound 1 µM
[35] = second compound 10 µM, first compound 3.16 µM
[36] = second compound 10 µM, first compound 10 µM
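Note: spheroids exposed to compounds for seven days before readout.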

CCCS(=O)(=O)Nc1ccc(F)c(C(=O)c2c[nH]c3ncc(-c4ccc(Cl)cc4)cc23)c1F + COC1C(OC(N)=O)C(O)C(Oc2ccc3c(O)c(NC(=O)c4ccc(O)c(CC=C(C)C)c4)c(=O)oc3c2C)OC1(C)C
inactive: viability, T/C [1] 99% | viability, T/C [2] 116% | viability, T/C [3] 107% | viability, T/C [4] 115% | viability, T/C [5] 169% | viability, T/C [6] 172% | viability, T/C [7] 101% | viability, T/C [8] 121% | viability, T/C [9] 105% | viability, T/C [10] 112% | viability, T/C [11] 157% | viability, T/C [12] 222% | viability, T/C [13] 116% | viability, T/C [14] 102% | viability, T/C [15] 102% | viability, T/C [16] 128% | viability, T/C [17] 155% | viability, T/C [18] 195% | viability, T/C [19] 117% | viability, T/C [20] 102% | viability, T/C [21] 102% | viability, T/C [22] 113% | viability, T/C [23] 143% | viability, T/C [24] 172% | viability, T/C [25] 98.7% | viability, T/C [26] 87.5% | viability, T/C [27] 140% | viability, T/C [28] 130% | viability, T/C [29] 139% | viability, T/C [30] 178% | viability, T/C [31] 112% | viability, T/C [32] 95.5% | viability, T/C [33] 111% | viability, T/C [34] 153% | viability, T/C [35] 144% | viability, T/C [36] 166%
> 10 µM: IC50 (second compound 0.0316 µM) | IC50 (second compound 0.1 µM) | IC50 (second compound 0.316 µM) | IC50 (second compound 1 µM) | IC50 (second compound 3.16 µM) | IC50 (second compound 10 µM)

CNCc1ccc(-c2[nH]c3cc(F)cc4c3c2CCNC4=O)cc1 + COC1C(OC(N)=O)C(O)C(Oc2ccc3c(O)c(NC(=O)c4ccc(O)c(CC=C(C)C)c4)c(=O)oc3c2C)OC1(C)C
> 10 µM: IC50 (second compound 0.0316 µM) | IC50 (second compound 0.1 µM) | IC50 (second compound 0.316 µM) | IC50 (second compound 1 µM) | IC50 (second compound 3.16 µM) | IC50 (second compound 10 µM)
inactive: viability, T/C [1] 95.1% | viability, T/C [2] 79.6% | viability, T/C [3] 86.8% | viability, T/C [4] 78.3% | viability, T/C [5] 83.8% | viability, T/C [6] 98.2% | viability, T/C [7] 90.2% | viability, T/C [8] 85.1% | viability, T/C [9] 97.2% | viability, T/C [10] 86.9% | viability, T/C [11] 91.3% | viability, T/C [12] 99% | viability, T/C [13] 111% | viability, T/C [14] 83.3% | viability, T/C [15] 93.1% | viability, T/C [16] 91.5% | viability, T/C [17] 108% | viability, T/C [18] 114% | viability, T/C [19] 92.8% | viability, T/C [20] 92.4% | viability, T/C [21] 90.5% | viability, T/C [22] 83.7% | viability, T/C [23] 107% | viability, T/C [24] 105% | viability, T/C [25] 97.7% | viability, T/C [26] 85.5% | viability, T/C [27] 92.1% | viability, T/C [28] 81% | viability, T/C [29] 108% | viability, T/C [30] 115% | viability, T/C [31] 94.2% | viability, T/C [32] 82.5% | viability, T/C [33] 96.7% | viability, T/C [34] 101% | viability, T/C [35] 113% | viability, T/C [36] 105%

COc1cccc(OCCCN)c1-c1cc(Nc2cnc(C#N)cn2)n[nH]1 + COC1C(OC(N)=O)C(O)C(Oc2ccc3c(O)c(NC(=O)c4ccc(O)c(CC=C(C)C)c4)c(=O)oc3c2C)OC1(C)C
> 1 µM: IC50 (second compound 0.0316 µM) | IC50 (second compound 0.1 µM) | IC50 (second compound 0.316 µM) | IC50 (second compound 1 µM) | IC50 (second compound 3.16 µM) | IC50 (second compound 10 µM)
inactive: viability, T/C (second compound 0.0316 µM, first compound 0.00316 µM) 87.7% | viability, T/C (second compound 0.0316 µM, first compound 0.01 µM) 81.7% | viability, T/C [1] 71.1% | viability, T/C [2] 64.2% | viability, T/C [3] 67.1% | viability, T/C [4] 71.7% | viability, T/C (second compound 0.1 µM, first compound 0.00316 µM) 109% | viability, T/C (second compound 0.1 µM, first compound 0.01 µM) 89.8% | viability, T/C [7] 84% | viability, T/C [8] 68.7% | viability, T/C [9] 65.6% | viability, T/C [10] 75.6% | viability, T/C (second compound 0.316 µM, first compound 0.00316 µM) 88.8% | viability, T/C (second compound 0.316 µM, first compound 0.01 µM) 85.4% | viability, T/C [13] 78.6% | viability, T/C [14] 70.6% | viability, T/C [15] 81.1% | viability, T/C [16] 70% | viability, T/C (second compound 1 µM, first compound 0.00316 µM) 96.7% | viability, T/C (second compound 1 µM, first compound 0.01 µM) 89.8% | viability, T/C [19] 76.4% | viability, T/C [20] 66.1% | viability, T/C [21] 72% | viability, T/C [22] 69.1% | viability, T/C (second compound 3.16 µM, first compound 0.00316 µM) 92.3% | viability, T/C (second compound 3.16 µM, first compound 0.01 µM) 96.7% | viability, T/C [25] 78.6% | viability, T/C [26] 74.3% | viability, T/C [27] 78.3% | viability, T/C [28] 76.1% | viability, T/C (second compound 10 µM, first compound 0.00316 µM) 87.6% | viability, T/C (second compound 10 µM, first compound 0.01 µM) 90.9% | viability, T/C [31] 70.4% | viability, T/C [32] 65.1% | viability, T/C [33] 66.5% | viability, T/C [34] 69.6%
